Experimental data published in patent publication US6358921B1, “Antimicrobial peptide compositions and method” (priority 1996, dated 2002).
pIC50: −log10 of the molar value. Like-named read-outs stand apart in the source and are kept apart here.

What was measured:
P. aeruginosa H187 = assay type: cell-based, Pseudomonas aeruginosa
Outline: (§1)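 Peptides are tested by liquid microdilution against strains such as Salmonella C610, E. faecalis ATCC 29212 and sensitive P. aeruginosa H188, with 5×10^5 CFU/mL in LB, overnight at 37 °C. Where a therapeutic index is given, it divides the 4 h complete-hemolysis concentration by the MIC.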

P. aeruginosa H188 = assay type: cell-based, Pseudomonas aeruginosa
Outline: (§2)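 Antimicrobial activity is measured by a liquid-broth assay in LB at 37 °C overnight, starting from 5×10^5 CFU/mL. Values are minimal inhibitory concentrations, i.e. the lowest concentration that stops growth.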

E. coli UB1005 = assay type: cell-based, Escherichia coli; conditions: UB1005
Outline: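 Growth inhibition was scored after overnight culture at 37 °C in LB with peptide serial dilutions (inoculum 5×10^5 CFU/mL); MICs were the lowest inhibitory concentrations. Test strains were E. coli UB1005 (wild type), C. xerosis (environmental), and C. albicans and S. epidermidis (clinical isolates).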

E. coli DC2 = assay type: cell-based, Escherichia coli; conditions: DC2
Outline: as §1

S. typhinurium C587 = assay type: cell-based, Salmonella typhinurium
Outline: as §2

S. typhinurium C610 = assay type: cell-based, Salmonella typhinurium
Outline: as §2

S. aureus K147 = assay type: cell-based, Staphylococcus aureus
Outline: (§3)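 Minimum inhibitory concentrations come from a broth rather than agar assay, using LB medium, a final inoculum of 5×10^5 CFU/mL and overnight incubation at 37 °C. Values are in μg/ml.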

S. aureus SAP0017 = assay type: cell-based, Staphylococcus aureus
Outline: as §3

S. epidermidis = assay type: cell-based, Staphylococcus epidermidis
Outline: (§4)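 Liquid-broth rather than agar method. Organisms: clinical isolates (C. albicans, S. epidermidis), environmental C. xerosis, wild-type E. coli UB1005.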

B. subtilis = assay type: cell-based, Bacillus subtilis
Outline: as §2

E. faecalis = assay type: cell-based, Enterococcus faecalis
Outline: as §2

C. xeroses = assay type: cell-based, Corynebacterium xerosis
Outline: as §4

C. Albicans = assay type: cell-based, Candida albicans
Outline: as §4

[1] = Displacement of dansyl-polymyxin from LPS; assay type: binding, P. aeruginosa; conditions: read-out: LPS binding affinity: peptide concentration to displace 50% of dansyl-polymyxin B from LPS; Tables 1, 4, 7
Outline: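 Peptides titrated into 3 μg/mL P. aeruginosa LPS with 2.5 μM dansyl-polymyxin (~90% site saturation) in 5 mM sodium HEPES, pH 7.0; fluorescence decrease recorded. I50 (50% probe displacement) taken from the x-intercept of a double-reciprocal plot of percent inhibition versus inhibitor concentration.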

human erythrocytes = assay: Hemolytic activity; assay type: cell-based
Method: Serial dilutions of the peptides in saline were prepared in round bottom microtitre plates using 100 μL volumes. Red blood cells were diluted with saline to 1/25 packed volume of cells and 50 μL added to each well. Plates were incubated with rocking at 37° C., and the concentration required for complete lysis determined visually after 4 h.

Q: Which results are given for CC(C)C[C@@H]1NC(=O)[C@H](CCCCN)NC(=O)[C@H](C(C)C)NC(=O)[C@@H]2CCCN2C(=O)[C@H](Cc2ccc(O)cc2)NC(=O)[C@H](CC(C)C)NC(=O)[C@H](CCCCN)NC(=O)[C@H](C(C)C)NC(=O)[C@H](CCCCN)NC(=O)[C@H](CC(C)C)NC(=O)[C@@H]2CCCN2C(=O)[C@@H](Cc2ccc(O)cc2)NC(=O)[C@H](C(C)C)NC(=O)[C@H](CCCCN)NC1=O [GS14Y13]?
A: Minimum Inhibitory Concentration (activity) (P. aeruginosa H187; H187): >200 µg/mL; Minimum Inhibitory Concentration (activity) (P. aeruginosa H188; H188): 100 µg/mL; Minimum Inhibitory Concentration (activity) (E. coli UB1005): 100 µg/mL; Minimum Inhibitory Concentration (activity) (E. coli DC2): 3.1 µg/mL; Minimum Inhibitory Concentration (activity) (S. typhinurium C587): >200 µg/mL; Minimum Inhibitory Concentration (activity) (S. typhinurium C610): >200 µg/mL; Minimum Inhibitory Concentration (activity) (S. aureus K147): >200 µg/mL; Minimum Inhibitory Concentration (activity) (S. aureus SAP0017): >200 µg/mL; Minimum Inhibitory Concentration (activity) (S. epidermidis): 9 µg/mL; Minimum Inhibitory Concentration (activity) (B. subtilis): >200 µg/mL; Minimum Inhibitory Concentration (activity) (E. faecalis): 3.1 µg/mL; Minimum Inhibitory Concentration (activity) (C. xeroses): 1 µg/mL; Minimum Inhibitory Concentration (activity) (C. Albicans): 25 µg/mL; pIC50 [1]: 4.62

Q: What does the source list for CC(C)C[C@@H]1NC(=O)[C@H](CCCCN)NC(=O)[C@H](C(C)C)NC(=O)[C@H](CCCCN)NC(=O)[C@@H]2CCCN2C(=O)[C@@H](Cc2ccc(O)cc2)NC(=O)[C@H](CCCCN)NC(=O)[C@H](CC(C)C)NC(=O)[C@H](CCCCN)NC(=O)[C@H](C(C)C)NC(=O)[C@@H](CCCCN)NC(=O)[C@@H]2CCCN2C(=O)[C@@H](Cc2ccc(O)cc2)NC(=O)[C@H](CCCCN)NC1=O [GS14invK1]?
A: Minimum Inhibitory Concentration (activity) (P. aeruginosa H187; H187): 12.5 µg/mL; Minimum Inhibitory Concentration (activity) (P. aeruginosa H188; H188): 9 µg/mL; Minimum Inhibitory Concentration (activity) (E. coli UB1005): 25 µg/mL; Minimum Inhibitory Concentration (activity) (E. coli DC2): 25 µg/mL; Minimum Inhibitory Concentration (activity) (S. typhinurium C587): 150 µg/mL; Minimum Inhibitory Concentration (activity) (S. typhinurium C610): 62 µg/mL; Minimum Inhibitory Concentration (activity) (S. aureus K147): >200 µg/mL; Minimum Inhibitory Concentration (activity) (S. aureus SAP0017): >200 µg/mL; Minimum Inhibitory Concentration (activity) (S. epidermidis): 100 µg/mL; Minimum Inhibitory Concentration (activity) (B. subtilis): >200 µg/mL; Minimum Inhibitory Concentration (activity) (E. faecalis): >200 µg/mL; Minimum Inhibitory Concentration (activity) (C. xeroses): 6.2 µg/mL; Minimum Inhibitory Concentration (activity) (C. Albicans): 200 µg/mL; Hemolytic activity: peptide concentration for 100% lysis of human erythrocytes (human erythrocytes): >800 µg/mL; pIC50 [1]: 4.37

Q: With CC(C)C[C@@H]1NC(=O)[C@H](CCCCN)NC(=O)[C@H](C(C)C)NC(=O)[C@H](CCCCN)NC(=O)[C@@H]2CCCN2C(=O)[C@@H](Cc2ccc(O)cc2)NC(=O)[C@H](CCCCN)NC(=O)[C@H](CC(C)C)NC(=O)[C@H](CCCCN)NC(=O)[C@@H](C(C)C)NC(=O)[C@H](CCCCN)NC(=O)[C@@H]2CCCN2C(=O)[C@@H](Cc2ccc(O)cc2)NC(=O)[C@H](CCCCN)NC1=O [GS14invV2] as the molecule, how does the “Minimum Inhibitory Concentration (activity)” value (P. aeruginosa H187; H187) read?
A: 9 µg/mL

Q: And the “Minimum Inhibitory Concentration (activity)” value (P. aeruginosa H188; H188)?
A: 9 µg/mL

Q: And the “Minimum Inhibitory Concentration (activity)” value (E. coli UB1005)?
A: 25 µg/mL

Q: What about the “Minimum Inhibitory Concentration (activity)” value (E. coli DC2) of the same molecule?
A: 50 µg/mL

Q: And the “Minimum Inhibitory Concentration (activity)” value (S. typhinurium C587)?
A: 200 µg/mL

Q: And the “Minimum Inhibitory Concentration (activity)” value (S. typhinurium C610)?
A: 37 µg/mL

Q: What about the “Minimum Inhibitory Concentration (activity)” value (S. aureus K147) of the same molecule?
A: >200 µg/mL

Q: And the “Minimum Inhibitory Concentration (activity)” value (S. epidermidis)?
A: 100 µg/mL

Q: And the “Minimum Inhibitory Concentration (activity)” value (B. subtilis)?
A: >200 µg/mL

Q: And the “Minimum Inhibitory Concentration (activity)” value (E. faecalis)?
A: >200 µg/mL

Q: What about the “Minimum Inhibitory Concentration (activity)” value (C. xeroses) of the same molecule?
A: 6.2 µg/mL

Q: And the “Minimum Inhibitory Concentration (activity)” value (C. Albicans)?
A: 200 µg/mL

Q: What about the “Hemolytic activity: peptide concentration for 100% lysis of human erythrocytes” value (human erythrocytes) of the same molecule?
A: 800 µg/mL

Q: What about the pIC50 [1] of the same molecule?
A: 4.15

Q: Which “Minimum Inhibitory Concentration (activity)” value (P. aeruginosa H187; H187) does the source give for CC(C)C[C@@H]1NC(=O)[C@H](CCCCN)NC(=O)[C@H](C(C)C)NC(=O)[C@H](CCCCN)NC(=O)[C@@H]2CCCN2C(=O)[C@@H](Cc2ccc(O)cc2)NC(=O)[C@H](CCCCN)NC(=O)[C@H](CC(C)C)NC(=O)[C@H](CCCCN)NC(=O)[C@H](C(C)C)NC(=O)[C@H](CCCCN)NC(=O)[C@@H]2CCCN2C(=O)[C@@H](Cc2ccc(O)cc2)NC(=O)[C@H](CCCCN)NC1=O [GS14inv] here?
A: 12.5 µg/mL

Q: What about the “Minimum Inhibitory Concentration (activity)” value (P. aeruginosa H188; H188) of the same molecule?
A: 6.2 µg/mL

Q: And the “Minimum Inhibitory Concentration (activity)” value (E. coli UB1005)?
A: 12.5 µg/mL

Q: What about the “Minimum Inhibitory Concentration (activity)” value (E. coli DC2) of the same molecule?
A: 0.8 µg/mL

Q: What about the “Minimum Inhibitory Concentration (activity)” value (S. typhinurium C587) of the same molecule?
A: 50 µg/mL

Q: What about the “Minimum Inhibitory Concentration (activity)” value (S. typhinurium C610) of the same molecule?
A: 3.1 µg/mL

Q: What about the “Minimum Inhibitory Concentration (activity)” value (S. aureus K147) of the same molecule?
A: >200 µg/mL

Q: And the “Minimum Inhibitory Concentration (activity)” value (S. aureus SAP0017)?
A: 200 µg/mL

Q: And the “Minimum Inhibitory Concentration (activity)” value (S. epidermidis)?
A: 25 µg/mL

Q: What about the “Minimum Inhibitory Concentration (activity)” value (B. subtilis) of the same molecule?
A: >200 µg/mL

Q: What about the “Minimum Inhibitory Concentration (activity)” value (E. faecalis) of the same molecule?
A: 200 µg/mL

Q: What about the “Minimum Inhibitory Concentration (activity)” value (C. xeroses) of the same molecule?
A: 0.8 µg/mL

Q: What about the “Minimum Inhibitory Concentration (activity)” value (C. Albicans) of the same molecule?
A: 25 µg/mL

Q: What about the “Hemolytic activity: peptide concentration for 100% lysis of human erythrocytes” value (human erythrocytes) of the same molecule?
A: >800 µg/mL

Q: And the pIC50 [1]?
A: 4.85

Q: Which results are given for CC(C)C[C@@H]1NC(=O)[C@H](CCCCN)NC(=O)[C@H](C(C)C)NC(=O)[C@@H]2CCCN2C(=O)[C@@H](Cc2ccc(O)cc2)NC(=O)[C@H](CCCCN)NC(=O)[C@H](CC(C)C)NC(=O)[C@H](C(C)C)NC(=O)[C@H](CCCCN)NC(=O)[C@H](CC(C)C)NC(=O)[C@@H]2CCCN2C(=O)[C@@H](Cc2ccc(O)cc2)NC(=O)[C@H](CCCCN)NC(=O)[C@H](C(C)C)NC1=O [GS14na]?
A: Minimum Inhibitory Concentration (activity) (P. aeruginosa H187; P. aeruginosa H187): 75 µg/mL; Minimum Inhibitory Concentration (activity) (P. aeruginosa H188; P. aeruginosa H188): 18 µg/mL; Minimum Inhibitory Concentration (activity) (E. coli UB1005): 37 µg/mL; Minimum Inhibitory Concentration (activity) (E. coli DC2): 62 µg/mL; Minimum Inhibitory Concentration (activity) (S. typhinurium C587): 100 µg/mL; Minimum Inhibitory Concentration (activity) (S. typhinurium C610): 12.5 µg/mL; Minimum Inhibitory Concentration (activity) (S. aureus K147): >200 µg/mL; Minimum Inhibitory Concentration (activity) (S. aureus SAP0017): 200 µg/mL; Minimum Inhibitory Concentration (activity) (S. epidermidis; S. epidermidis): 50 µg/mL; Minimum Inhibitory Concentration (activity) (B. subtilis; B. subtilis): >200 µg/mL; Minimum Inhibitory Concentration (activity) (E. faecalis; E. faecalis): 200 µg/mL; Minimum Inhibitory Concentration (activity) (C. xeroses; C. xeroses): 1.5 µg/mL; Minimum Inhibitory Concentration (activity) (C. Albicans; C. Albicans): 100 µg/mL; Hemolytic activity: peptide concentration for 100% lysis of human erythrocytes (human erythrocytes): >800 µg/mL
